The text below walks through data of patent EP4786454A1, “HETEROARYL DERIVATIVE AND USE THEREOF” (priority 2023, dated 2025).

Data set [1] can be described thus: Stability in liver microsomes (human). Format: in vitro ADME. The following applies: h (human liver microsomes), 0.5 mg/mL, read-out: MMS Clint. The method, then:
(§1) The purpose of this study was to evaluate the phase I metabolic stability of the assay sample in liver microsomes from CD-1 mice, Sprague-Dawley (SD) rats, beagle dogs, cynomolgus monkeys, and human.
(§2) The animal and human liver microsomes used in this assay system were purchased from Xenotech, Corning, or other qualified suppliers.
(§3) Preparation of buffer: 73.21 g of potassium phosphate dibasic trihydrate and 10.78 g of potassium dihydrogen phosphate were dissolved in 4000 mL of ultrapure water. The pH of the solution was adjusted to the range of 7.40 ± 0.10 using 10.0% phosphoric acid or 1.00 M potassium hydroxide. Its final concentration was 100 mM.
(§4) Preparation of working solutions: An assay sample powder was prepared into a 10.0 mM stock solution with DMSO, and then further diluted with a suitable organic solvent. The control compounds testosterone, diclofenac, and propafenone were prepared into 10.0 mM stock solutions using DMSO, and then further diluted with a suitable organic solvent.
(§5) Preparation of liver microsome solution: Microsomes of various species were diluted with 100 mM potassium phosphate buffer to a working solution of 0.56 mg/mL. The final concentration of microsomes in the reaction system was 0.500 mg/mL. Detailed preparation procedures were described in the experimental records.
(§6) Preparation of reduced nicotinamide adenine dinucleotide phosphate (NADPH) solution: An appropriate amount of reduced nicotinamide adenine dinucleotide phosphate was dissolved in magnesium chloride solution, and the mixture was shaken to mix well. The final concentrations in the reaction system were 1.00 mM NADPH and 1.00 mM magnesium chloride, respectively. Detailed preparation procedures were described in the experimental records.
(§7) Preparation of stop solution: The stop solution was prepared using acetonitrile containing internal standards (tolbutamide and labetalol). The prepared stop solution was stored at 2.0 to 8.0 °C in a refrigerator. Detailed preparation procedures were described in the experimental records. […]

A short description of data set [2]: Stability in liver microsomes (rat). Format: in vitro ADME, Sprague-Dawley (SD) rats. The following applies: r (SD rat liver microsomes), 0.5 mg/mL, read-out: MMS Clint. The method, then:
as §1, §2, §3, §4, §5, §6, §7
Background: Liver microsomes are vesicles of endoplasmic reticulum, rich in cytochrome P450 enzymes.

For data set [3], the system named is male CD-1 mice. The experiment in a line: Maximal electroshock-induced epilepsy model, behavioral pharmacodynamics. The class given is in vivo. As to conditions: 5 mg/kg orally, one hour before electrical stimulation. From the text: This study used behavioral tests in male CD-1 mice to investigate the effects of test compounds on acute epileptic seizures behavior induced by maximal electroshock.
Male CD-1 mice (25 to 35g) were used as the experimental animals and fed with standard feed (Beijing Vital River Laboratory Animal Technology Co., Ltd.).
After arriving at the animal facility, the experimental animals needed to acclimatize for at least one week. The mice were observed daily for vital signs, and randomly divided into groups according to their body weights one day before the drug administration. One hour before the electrical stimulation, different dosages of the test compound were orally administered to each group. On the day of the assay, the male CD-1 mice in each group were anesthetized locally at the cornea with 2% lidocaine. Then, silver bipolar electrodes were used to electrically stimulate the cornea of the mice with 18 mA, 60 Hz, a pulse width of 0.6 ms, and a stimulation time of 1 s to induce seizures. Subsequently, the latency of seizures and the duration of limb rigidity in mice after the electrical stimulation were observed, and the protection rate from seizures for each group was statistically analyzed.

For `CC(C)(C)CC(=O)Nc1nc2c(F)cc(C#N)cn2c1C12CC(C1)C2` [Compound 5], the CLint scaled at 1 µM was less than 8.6 mL/min/kg in data set [1] and less than 17 mL/min/kg in data set [2].
As for `CC(C)(C)CC(=O)Nc1nc2c(F)cc(C#N)cn2c1C1=CCCC1` [Compound 3], the “Protection rate from seizures” value in data set [3] is 66.7%. For the same compound, the results for the CLint scaled at 1 µM in data set [1] and in data set [2] were 19 mL/min/kg and 123 mL/min/kg, respectively.
The like results for `CC(C)(C)CC(=O)Nc1nc2c(F)cc(C#N)cn2c1-c1ccc(OC(F)(F)F)cc1` [Compound 1] were, in that order, 66.7%, 30 mL/min/kg and 193 mL/min/kg.
